Laboratory results taken from patent US20240000758A1, “ELEVATION OF MITOCHONDRIAL BIOGENESIS AND FUNCTION BY INHIBITION OF PROSTAGLANDIN DEGRADING ENZYME 15-PGDH” (The Board of Trustees of the Leland Stanford Junior …, priority 2020, published 2024).
Entries after “also recorded” stand apart in the source; their conditions may differ.

What was measured:
[1] = tested on: cyclic AMP response element binding protein (CREB); assay: immunoblots of muscle lysates for CREB activation after PGE2 i.m. injection; assay type: in vivo, C57BL/6 mice; conditions: young (3 mo.) mice, PGE2 i.m., 0, 30 or 60 minutes; FIG. 2A
Procedure: FIGS. 2A-2C. PGE2 treatment leads to activation of CREB in muscles and 15-PGDH inhibition leads to increased mitochondrial biogenesis and function in aged muscles. (FIG. 2A) Immunoblots of muscle lysates from young (3 mo.) C57BL/6 mice injected with PGE2 i.m. after 0, 30 or 60 minutes. (FIG. 2B) Quantification of immunoblot in (FIG. 2A) (n=3 mice per timepoint). (FIG. 2B) Representative images of intermyofibrillar (IMF) mitochondria from transmission electron micrographs (TEM) of longitudinal sections of EDL muscles of young, aged vehicle and aged SW (n=3 mice per condition; total mitochondria quantified, n=1,066 young, n=1,350 aged vehicle and n=1,371 aged SW). Different magnifications are as shown: 1,500×, 3,000× and 10,000× with […] respectively: 5 μm, 2 μm and 500 nm. (FIG. 2C) Citrate synthase activity of Quadriceps (Quad) muscles (n=13 aged vehicle and n=8 aged SW). *P<0.05, **P<0.01. ANOVA test with Fisher's LSD for multiple comparisons (FIG. 2B); unpaired t-test (FIG. 2C). Means±s.e.m.
To identify downstream signaling pathways through which 15-PGDH inhibition exerts its effects on aged muscles, we performed an unbiased transcriptomic analysis of aged muscles treated with vehicle or SW033291 (SW). […]

aged muscles [2] = assay: relative quantification of mitochondrial DNA to nuclear DNA in aged muscles; assay type: in vivo, mice; conditions: SW treatment of aged muscles; FIG. 1C
Text: (§1) FIGS. 1A-1H. Boost in mitochondrial biogenesis and function is triggered by 15-PGDH inhibition in aged muscles. (FIG. 1A) Heatmap of mitochondrial genes. (FIG. 1B) Expression level of Pgc1α by qPCR (n=4 young, n=4 aged veh, n=3 aged SW033291 (SW)). (FIG. 1C) Relative quantification of mitochondrial DNA to nuclear DNA (n=4 per group). (FIG. 1D) Representative images and quantifications of intermyofibrillar (IMF) mitochondria numbers, their size, and myofibrillar width from transmission electron micrographs (TEM) of longitudinal sections of EDL muscles of young, aged vehicle and aged SW (n=3 mice per condition; total mitochondria quantified, n=1,066 young, n=1,350 aged vehicle and n=1,371 aged SW). Scale bar=2 μm. (FIG. 1E) Citrate synthase activity of Gastrocnemius muscles (n=3 young, n=4 aged vehicle and n=4 aged SW). (FIG. 1F) Representative TA cross-section stained for succinate dehydrogenase (SDH) (left). Quantification of SDH mean average intensity per fiber (n=4 mice per condition). (FIG. 1G) Representative images of mitochondrial membrane potential (TMRM staining) in isolated EDL myofibers from young, aged vehicle and SW treated mice (n=4 mice per condition; total number of fibers n=52 young, n=139 aged vehicle and n=89 aged SW). […] Quantification (right) (n=3 aged veh and SW). *P<0.05, **P<0.01, ***P<0.001, ****P<0.0001. […]

[3] = tested on: intermyofibrillar (IMF) mitochondria of EDL muscles; assay: transmission electron microscopy (TEM) of Extensor digitorum longus (EDL) muscles; assay type: in vivo, mice
Text: FIGS. 1A-1H. Boost in mitochondrial biogenesis and function is triggered by 15-PGDH inhibition in aged muscles. (FIG. 1A) Heatmap of mitochondrial genes. (FIG. 1B) Expression level of Pgc1α by qPCR (n=4 young, n=4 aged veh, n=3 aged SW033291 (SW)). (FIG. 1C) Relative quantification of mitochondrial DNA to nuclear DNA (n=4 per group). (FIG. 1D) Representative images and quantifications of intermyofibrillar (IMF) mitochondria numbers, their size, and myofibrillar width from transmission electron micrographs (TEM) of longitudinal sections of EDL muscles of young, aged vehicle and aged SW (n=3 mice per condition; total mitochondria quantified, n=1,066 young, n=1,350 aged vehicle and n=1,371 aged SW). Scale bar=2 μm. (FIG. 1E) Citrate synthase activity of Gastrocnemius muscles (n=3 young, n=4 aged vehicle and n=4 aged SW). (FIG. 1F) Representative TA cross-section stained for succinate dehydrogenase (SDH) (left). Quantification of SDH mean average intensity per fiber (n=4 mice per condition). (FIG. 1G) Representative images of mitochondrial membrane potential (TMRM staining) in isolated EDL myofibers from young, aged vehicle and SW treated mice (n=4 mice per condition; total number of fibers n=52 young, n=139 aged vehicle and n=89 aged SW). (FIG. 1H) Immunoblots of muscle lysates from: aged vehicle and SW treated mice together with colchicine, young mice without treatment, young mice treated with colchicine and young mice fasted and treated with colchicine. Quantification (right) (n=3 aged veh and SW). *P<0.05, **P<0.01, ***P<0.001, ****P<0.0001. ANOVA test with Tukey's test (FIG. 1D) or Fisher's LSD (FIGS. 1A, 1F, 1G) for multiple comparisons; Unpaired t-test (FIGS. 1C, 1E, 1H). Means±s.e.m.
(§2) FIGS. 2A-2C. […] (FIG. 2B) Quantification of immunoblot in (FIG. 2A) (n=3 mice per timepoint). (FIG. 2B) Representative images of intermyofibrillar (IMF) mitochondria from transmission electron micrographs (TEM) of longitudinal sections of EDL muscles of young, aged vehicle and aged SW (n=3 mice per condition; total mitochondria quantified, n=1,066 young, n=1,350 aged vehicle and n=1,371 aged SW). […]

succinate dehydrogenase = succinate dehydrogenase (SDH) staining of TA cross-sections; assay type: in vivo, mice; conditions: SW treated aged muscle; FIG. 1F
Text: as §1

citrate synthase = citrate synthase activity in isolated mitochondria of aged muscles; assay type: in vivo, mice; conditions: SW-treated aged muscles compared to controls, FIGS. 1E and 2C
Text: as §1, with “(FIG. 1F) Representative TA cross-section stained for succinate dehydrogenase (SDH) (left).” left out, “condition).” for “condition). (FIG. 1G) Representative images of mitochondrial membrane potential (TMRM staining) in isolated EDL myofibers from young, aged vehicle and SW treated mice (n=4 mice per condition; total number of fibers n=52 young, n=139 aged vehicle and n=89 aged SW).”
as §2

[4] = tested on: myofibers isolated from EDL muscles; assay: mitochondrial membrane potential (TMRM staining) in isolated EDL myofibers; assay type: in vivo; conditions: myofibers from EDL muscles of SW treated aged mice compared to controls; FIG. 1G
Text: as §1

aged muscles [5] = assay: unbiased transcriptomic analysis of aged muscles treated with vehicle or SW033291; assay type: in vivo, mice; conditions: FIG. 1A
Text: as §1

[6] = tested on: peroxisome proliferator-activated receptor gamma coactivator 1-alpha (Pgc1α); assay: Pgc1α mRNA level by qPCR in aged muscles; assay type: in vivo, mice; conditions: SW vs vehicle and young, FIG. 1B
Text: as §1

p62 = assay: autophagy flux, western blot of p62 upon colchicine treatment; assay type: in vivo; conditions: muscles of aged mice treated with SW compared to controls; FIG. 1H
Text: as §1

aged muscles [7] = assay: muscle atrophy (cross sectional area, muscle mass) in aged mice; assay type: in vivo; conditions: aged treated with SW compared to vehicle controls
Text: In addition, the morphology of the mitochondria improved. The shift in IMF mitochondrial area from compact and round in young to a larger size with more disorganized morphology in aged tissues was clearly evident, in agreement with reports by others (J. P. Leduc-Gaudet et al., Mitochondrial morphology is altered in atrophied skeletal muscle of aged mice. Oncotarget 6, 17923-17937 (2015); V. Romanello, M. Sandri, Mitochondrial Quality Control and Muscle Mass Maintenance. Front Physiol 6, 422 (2015)) (FIGS. 1D and 2B).

Structure (SMILES) | activation of CREB in skeletal muscles [1] | mitochondrial DNA content relative to nuclear DNA content (aged muscles [2]) | number of intermyofibrillar (IMF) mitochondria ([3]; EDL muscles of aged mice after SW treatment, FIGS. 1D and 2B) | mitochondrial morphology ([3]; aged EDL muscles, one month of SW treatment, FIG. 1D) | myofibril width ([3]; aged treated with SW compared to vehicle controls, FIGS. 1D and 2B) | succinate dehydrogenase activity (succinate dehydrogenase) | citrate synthase activity (citrate synthase) | mitochondrial membrane potential [4] | components of mitochondria complexes I, II, IV and V of the electron transport chain (transcriptome) (aged muscles [5]; SW-treated aged muscles) | change in aged muscle tissue transcriptome: mitochondrial pathways (oxidative phosphorylation, ATP synthesis) (aged muscles [5]; aged muscles, SW vs vehicle) | mRNA level of Pgc1α [6] | autophagy flux (p62 upon colchicine treatment) (p62) | muscle atrophy (aged muscles [7])
CCCCC[C@H](O)/C=C/[C@H]1[C@H](O)CC(=O)[C@@H]1C/C=C\CCCC(=O)O [PGE2, Prostaglandin E2] | activates | – | – | – | – | – | – | – | – | – | – | – | –
CCCC[S+]([O-])c1sc2nc(-c3cccs3)cc(-c3ccccc3)c2c1N (stereo not shown) [SW, 2-(butylsulfinyl)-4-phenyl-6-(thiophen-2-yl)thieno[2,3-b]pyridin-3-amine] | – | increased | increase | restored to a compact mitochondrial morphology resembling that seen in young | increase | increased; also recorded: restored to young levels | significantly increased; also recorded: restored to young levels | increase; also recorded: restored to young levels | markedly increased | strong enrichment for mitochondrial pathways | restored to that seen in young muscles | increased | attenuation of muscle atrophy
